Measured values reported in patent publication US20230087342A1, “AZEPANE DERIVATIVE” (Nippon Chemiphar Co., Ltd., priority 2019, published 2023).
Like-named read-outs stand apart in the source and are kept apart here.

Assays:
human κ opioid receptors = target: T1, human κ opioid receptors (Homo sapiens, UniProt P41145); test: Opioid receptor function test (Lance Ultra cAMP kit, agonist activity); assay type: cell-based; conditions: CHO cells expressing human κ opioid receptors, 10 μM forskolin, 30 minutes
T1 construct: host or cells: CHO cells
T1 sequence (P41145 whole entry): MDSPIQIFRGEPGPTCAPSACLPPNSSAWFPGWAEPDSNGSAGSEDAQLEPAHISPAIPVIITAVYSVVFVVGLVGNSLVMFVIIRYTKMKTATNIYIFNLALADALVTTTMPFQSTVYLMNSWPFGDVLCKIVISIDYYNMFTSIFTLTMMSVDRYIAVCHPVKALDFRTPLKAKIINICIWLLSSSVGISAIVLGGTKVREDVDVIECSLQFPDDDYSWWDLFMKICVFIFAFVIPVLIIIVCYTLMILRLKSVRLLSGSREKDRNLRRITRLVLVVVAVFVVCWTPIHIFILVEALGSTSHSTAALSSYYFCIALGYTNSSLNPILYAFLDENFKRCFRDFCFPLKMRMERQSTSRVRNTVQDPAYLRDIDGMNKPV
Procedure, shortened: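 CHO cells expressing human κ opioid receptor incubated 30 min with test compound (10^−14 to 10^−7 M) and 10 μM forskolin in HSS/5 mM HEPES pH 7.4 with 0.5 mM IBMX and 0.1% SA. cAMP measured by TR-FRET (Lance Ultra) 1 h after detection reagent addition.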

Metabolic stability test = assay type: in vitro ADME; conditions: human liver microsomes, 0 to 30 minutes; a hydrochloride was used
Description: To determine the unchanged product-residual ratio of the test compound in the reaction sample, human liver microsomes and the test compound were reacted for a predetermined time (0 to 30 minutes). The unchanged product-residual ratio at a reaction time of 0 hours was considered 100%, the residual ratio after incubation was log-linear plotted with respect to the time, a regression line (y=100 e^−kt, k=slope of the line: elimination rate constant) was determined, and the metabolic clearance CLint (mL/min/kg) was calculated using the following formula.
CLint*=k (−min)×45 (mg MS protein/g liver)×21 (g liver/kg)/MS protein (mg MS protein/mL)
*: Yamazaki S.; Skaptason J.; Romero D, Vekich S.; Jones HM.; Tan W.; Wilner KD.; Koudriakova T. Drug Metab. Dispos. 2011 March; 39 (3): 383-393.

ICR male mice = test: Mouse acetic acid writhing test; assay type: in vivo; conditions: hydrochloride; for ED50: Mus musculus, read-out: ED50 value (writhing suppressing effect)
Description: Mouse Acetic Acid Writhing Test
The analgesic effect of the test compound was evaluated by an acetic acid writhing test. For the experiment, ICR male mice were used and acclimated to a plastic open field for 30 minutes before starting the test. After acclimation, the mice were administered with the test compound (30 to 3000 μg/kg) or water for injection subcutaneously or orally, and once returned to the open field. Thirty minutes after the administration of the test compound, a 0.6% aqueous acetic acid solution was additionally administered to the same mice by intraperitoneal administration. From 10 minutes after administration of the 0.6% aqueous acetic acid solution, the number of writhing reactions (writhing reactions in which the mouse stretches while pressing the abdominal cavity against the floor) induced in the mice was measured for 10 minutes, and the number of writhing reactions was compared with that of a control group (water for injection-administrated group) to evaluate the analgesic effect of the test compound.

| Structure (SMILES) | EC50 (human κ opioid receptors) [pM] | CLint scaled (Metabolic stability test) [mL/min/kg] | ED50 (ICR male mice; sc, Subcutaneous) [mg/kg] | Writhing suppression rate (ICR male mice; Subcutaneous, dose 30 (μg/kg)) | Writhing suppression rate (ICR male mice; Subcutaneous, dose 300 (μg/kg)) | ED50 (ICR male mice; Oral) [mg/kg] | Writhing suppression rate (ICR male mice; Oral, dose 30 (μg/kg)) | Writhing suppression rate (ICR male mice; Oral, dose 300 (μg/kg)) |
| --- | --- | --- | --- | --- | --- | --- | --- | --- |
| Oc1ccc2c(c1)[C@@]13CCN(CCc4ccccn4)CC[C@@]1(O)[C@@H](C2)N(CC1CC1)CC3 [Example 77, (5aS,6R,11bS)-14-(cyclopropylmethyl)-3-(2-(pyridin-2-yl)ethyl)-2,3,4,5,6,7-hexahydro-6,11b-(epiminoethano)naphtho[1,2-d]azepine-5a,10(1H)-diol] | 26 | 6.7 | 0.0125 | + (40 ≤ % <60: +) | +++ (80 ≤ %: +++) |  |  |  |
| O=C(Cc1ccccn1)N1CC[C@]23CCN(CC4CC4)[C@H](Cc4ccc(O)cc42)[C@]3(O)CC1 [Example 22, 1-((5aS,6R,11bR)-14-(cyclopropylmethyl)-5a,10-dihydroxy-1,2,5,5a,6,7-hexahydro-6,11b-(epiminoethano)naphtho[1,2-d]azepin-3(4H)-yl)-2-(pyridin-2-yl)ethan-1-one] | 130 | 7.2 |  |  |  | 0.0152 | + (40 ≤ % <60: +) | ++ (60 ≤ % <80: ++) |
| Oc1ccc2c(c1)[C@@]13CCN(CCn4cccn4)CC[C@@]1(O)[C@@H](C2)N(CC1CC1)CC3 [Example 45, (5aS,6R,11bS)-3-(2-(1H-pyrazol-1-yl)ethyl)-14-(cyclopropylmethyl)-2,3,4,5,6,7-hexahydro-6,11b-(epiminoethano)naphtho[1,2-d]azepine-5a,10(1H)-diol] | 170 | 4.5 |  | ++ (60 ≤ % <80: ++) |  |  |  |  |
